Results as given in patent US6472348B1, “Pyridone derivatives and herbicides” (Kumiai Chemical Industry Co., Ltd., priority 1996, dated 2002).

Assays:
Assay type in all cases: in vivo
slender amaranth (Am) [1] = test: Test Example 4: crop plant selectivity by upland field soil treatment (cotton), herbicidal effects; design: scale not given here; settings: evaluated 21st day after application
Method: (§1) (Test on Crop Plant Selectivity by Upland Field Soil Treatment)
(§2) In a plastic pot (surface area: 600 cm^2) filled with sand, cotton (Go), Diaitaria ciliaris (Di), green foxtail (Se), pale smartweed (Po), slender amaranth (Am), common lambsquarters (Ch) and China jute (Ab) were sown and covered with soil. […] The plants were then cultured in a green house, and the evaluation of the herbicidal effects and phytotoxicity was conducted on the 21st day after the application in accordance with the standards as identified in Table 47. Symbol—represents “not tested”.

pale smartweed (Po) [2] = test: as above; design: scale not given here; settings: evaluated 21st day after application
Method: as §1, §2

green foxtail (Se) [3] = test: as above; design: scale not given here; settings: evaluated 21st day after application
Method: as §1, §2

China jute (Ab) [4] = test: as above; design: scale not given here; settings: evaluated 21st day after application
Method: as §1, §2

[5] = tested on: common lambsquarters (Ch); test: as above; design: scale not given here; settings: evaluated 21st day after application
Method: as §1, §2

Digitaria ciliaris (Di) = test: Test Example 2: herbicidal effects by upland field soil treatment; settings: 100 g of the active ingredient per 10 ares;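 also: grade of growth control; 5 = at least 90%; 4 = 70 to 90%; 3 = 50 to 70%; 2 = 30 to 50%; 1 = 10 to 30%; 0 = under 10%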
Description: (§3) (Test on Herbicidal Effects by Upland Field Soil Treatment)

rice flatsedge (Ci) [6] = test: as above; settings: 100 g of the active ingredient per 10 ares
Description: as §3

slender amaranth (Am) [7] = test: as above; settings: 100 g of the active ingredient per 10 ares
Description: as §3

pale smartweed (Po) [8] = test: as above; settings: 100 g of the active ingredient per 10 ares
Description: as §3

[9] = tested on: common lambsquarters (Ch); test: as above; settings: 100 g of the active ingredient per 10 ares
Description: as §3

barnyardgrass (Ec) [10] = test: as above; settings: 100 g of the active ingredient per 10 ares
Description: as §3

cotton (Go) = test: Test Example 4: crop plant selectivity by upland field soil treatment (cotton), phytotoxicity; design: scale not given here; settings: evaluated 21st day after application
Method: as §1, §2

wheat (Tr) = test: Test Example 5: crop plant selectivity by upland field soil treatment (wheat), phytotoxicity; design: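 grade of crop injury; 5 = at least 90%; 4 = 70 to 90%; 3 = 50 to 70%; 2 = 30 to 50%; 1 = 10 to 30%; 0 = under 10%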; settings: 21st day after application
Method: as §1
(§4) In a plastic pot (surface area: 600 cm^2) filled with sand, wheat (Tr), Diaitaria ciliaris (Di), green foxtail (Se), pale smartweed (Po), slender amaranth (Am), common lambsquarters (Ch) and China jute (Ab) were sown and covered with soil. […] The plants were then cultured in a green house, and the evaluation of the herbicidal effects and phytotoxicity was conducted on the 21st day after the application in accordance with the standards as identified in Table 47. Symbol—represents “not tested”.

slender amaranth (Am) [11] = test: Test Example 5: crop plant selectivity by upland field soil treatment (wheat), herbicidal effects; design: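 grade of growth control; 5 = at least 90%; 4 = 70 to 90%; 3 = 50 to 70%; 2 = 30 to 50%; 1 = 10 to 30%; 0 = under 10%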; settings: 21st day after application
Method: as §1, §4

pale smartweed (Po) [12] = test: as above; design: scale not given here; settings: 21st day after application
Method: as §1, §4

green foxtail (Se) [13] = test: as above; design: scale not given here; settings: 21st day after application
Method: as §1, §4

China jute (Ab) [14] = test: as above; design: scale not given here; settings: 21st day after application
Method: as §1, §4

[15] = tested on: common lambsquarters (Ch); test: as above; design: scale not given here; settings: 21st day after application
Method: as §1, §4

rice flatsedge (Ci) [16] = test: Test Example 3: herbicidal effects by upland field foliage treatment; design: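 grade of growth control; 5 = at least 90%; 4 = 70 to 90%; 3 = 50 to 70%; 2 = 30 to 50%; 1 = 10 to 30%; 0 = under 10%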
How it was run: (§5)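 Post-emergence upland foliage test. Seedlings grown 2 weeks under glass in pots (120 cm^2) of sand, seed topped with soil; treated on the foliage, kept in greenhouse, then assessed at day 14 using rating standards.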

slender amaranth (Am) [17] = test: as above; design: scale not given here
How it was run: as §5

pale smartweed (Po) [18] = test: as above; design: scale not given here
How it was run: as §5

[19] = tested on: common lambsquarters (Ch); test: as above; design: scale not given here
How it was run: as §5

Diaitaria ciliaris (Di) = test: as above; design: scale not given here
How it was run: as §5

barnyardgrass (Ec) [20] = test: as above; design: scale not given here
How it was run: as §5

bulrush (Sc) = test: Test Example 1: herbicidal effects by paddy field soil treatment; settings: 100 g of the active ingredient per 10 ares, 21st day after the application, index 0-5 of Table 47;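 also: grade of growth control; 5 = at least 90%; 4 = 70 to 90%; 3 = 50 to 70%; 2 = 30 to 50%; 1 = 10 to 30%; 0 = under 10%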
How it was run: (§6)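 Flooded paddy-soil pots (3 cm water) sown after puddling/leveling; treatment 100 g a.i./10 ares; greenhouse culture; herbicidal effect rated visually on a scoring scale at 21 d post-application.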

monochoria (Mo) = test: as above; settings: 100 g of the active ingredient per 10 ares, 21st day after the application, index 0-5 of Table 47;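 also: grade of growth control; 5 = at least 90%; 4 = 70 to 90%; 3 = 50 to 70%; 2 = 30 to 50%; 1 = 10 to 30%; 0 = under 10%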
How it was run: as §6

barnyardgrass (Ec) [21] = test: as above; settings: 100 g of the active ingredient per 10 ares, 21st day after the application, index 0-5 of Table 47
How it was run: as §6

[22] = 21st day after the application, index 0-5 of Table 47
[23] = 100 g of the active ingredient per 10 ares, evaluated on the 14th day after treatment
[24] = evaluated on the 21st day after application
[25] = 100 g active ingredient per 10 ares, evaluated 14th day after treatment

SMILES: Cn1c(C(F)(F)F)ccc(-c2cc(Oc3ncccn3)c(Cl)cc2F)c1=O [Compound No. 1-27]
- Herbicidal effects Am (slender amaranth (Am) [1]; dose 1.6 g ai/10 a): 5
- Herbicidal effects Am (slender amaranth (Am) [1]; dose 6.3 g ai/10 a): 5
- Herbicidal effects Po (pale smartweed (Po) [2]; dose 1.6 g ai/10 a): 5
- Herbicidal effects Po (pale smartweed (Po) [2]; dose 6.3 g ai/10 a): 5
- Herbicidal effects Se (green foxtail (Se) [3]; dose 1.6 g ai/10 a): 5
- Herbicidal effects Se (green foxtail (Se) [3]; dose 6.3 g ai/10 a): 5
- Herbicidal effects Ab (China jute (Ab) [4]; dose 1.6 g ai/10 a): 5
- Herbicidal effects Ab (China jute (Ab) [4]; dose 6.3 g ai/10 a): 5
- Herbicidal effects Ch ([5]; dose 1.6 g ai/10 a): 5
- Herbicidal effects Ch ([5]; dose 6.3 g ai/10 a): 5
- Herbicidal effects Di (Digitaria ciliaris (Di); [22]): 5
- Herbicidal effects Ci (rice flatsedge (Ci) [6]; [22]): 5
- Herbicidal effects Am (slender amaranth (Am) [7]; [22]): 5
- Herbicidal effects Po (pale smartweed (Po) [8]; [22]): 5
- Herbicidal effects Ch [9, 22]: 5
- Herbicidal effects Ec (barnyardgrass (Ec) [10]; [22]): 5
- Phytotoxicity Go (cotton (Go); dose 1.6 g ai/10 a): 1
- Phytotoxicity Go (cotton (Go); dose 6.3 g ai/10 a): 1
- Phytotoxicity Tr (wheat (Tr); dose 1.6 g ai/10a): 1
- Herbicidal effects Am (slender amaranth (Am) [11]; dose 1.6 g ai/10a): 5
- Herbicidal effects Po (pale smartweed (Po) [12]; dose 1.6 g ai/10a): 5
- Herbicidal effects Se (green foxtail (Se) [13]; dose 1.6 g ai/10a): 5
- Herbicidal effects Ab (China jute (Ab) [14]; dose 1.6 g ai/10a): 5
- Herbicidal effects Ch ([15]; dose 1.6 g ai/10a): 5
- Herbicidal effects Ci (rice flatsedge (Ci) [16]; [23]): 5
- Herbicidal effects Am (slender amaranth (Am) [17]; [23]): 5
- Herbicidal effects Po (pale smartweed (Po) [18]; [23]): 5
- Herbicidal effects Ch [19, 23]: 5
- Herbicidal effects Di (Diaitaria ciliaris (Di); [23]): 5
- Herbicidal effects Ec (barnyardgrass (Ec) [20]; [23]): 5
- Herbicidal effects Sc (bulrush (Sc)): 5
- Herbicidal effects Mo (monochoria (Mo)): 5
- Herbicidal effects Ec (barnyardgrass (Ec) [21]): 5

SMILES: C#CCN1C(=O)COc2cc(F)c(-c3cc(C)c(C(F)(F)F)n(C)c3=O)cc21 [Compound 2-2]
- Herbicidal effects Di (Digitaria ciliaris (Di); [24]): 5
- Herbicidal effects Ci (rice flatsedge (Ci) [6]; [24]): 5
- Herbicidal effects Am (slender amaranth (Am) [7]; [24]): 5
- Herbicidal effects Po (pale smartweed (Po) [8]; [24]): 5
- Herbicidal effects Ch [9, 24]: 5
- Herbicidal effects Ec (barnyardgrass (Ec) [10]; [24]): 5
- Phytotoxicity Tr (wheat (Tr); dose 6.3 g ai/10a): 2
- Herbicidal effects Am (slender amaranth (Am) [11]; dose 6.3 g ai/10a): 5
- Herbicidal effects Po (pale smartweed (Po) [12]; dose 6.3 g ai/10a): 5
- Herbicidal effects Se (green foxtail (Se) [13]; dose 6.3 g ai/10a): 5
- Herbicidal effects Ab (China jute (Ab) [14]; dose 6.3 g ai/10a): 5
- Herbicidal effects Ch ([15]; dose 6.3 g ai/10a): 5
- Herbicidal effects Ci (rice flatsedge (Ci) [16]; [25]): 5
- Herbicidal effects Am (slender amaranth (Am) [17]; [25]): 5
- Herbicidal effects Po (pale smartweed (Po) [18]; [25]): 5
- Herbicidal effects Ch [19, 25]: 5
- Herbicidal effects Di (Diaitaria ciliaris (Di); [25]): 5
- Herbicidal effects Ec (barnyardgrass (Ec) [20]; [25]): 5
- Herbicidal effects Sc (bulrush (Sc)): 5
- Herbicidal effects Mo (monochoria (Mo)): 5
- Herbicidal effects Ec (barnyardgrass (Ec) [21]): 5
